Source: patent publication US8278032B2, “Transporter protein in mammal and utilization of the same” (priority 2005, dated 2012)
Like-named read-outs stand apart in the source and are kept apart here. Values belong to the compound of their own block, whether it stands above or below them.

Experiments:
hMATE1 = molecular target: T1, hMATE1 (Homo sapiens, UniProt Q96FL8); assay: Inhibition of RI-labeled TEA uptake in HEK293 cells expressing hMATE1; conditions: for Inhibition of TEA uptake activity (in words, summary of Table 1): MATE1 expressing HEK293 cells, 50 μM TEA, pH 8.0
T1 sequence (Q96FL8 1-570): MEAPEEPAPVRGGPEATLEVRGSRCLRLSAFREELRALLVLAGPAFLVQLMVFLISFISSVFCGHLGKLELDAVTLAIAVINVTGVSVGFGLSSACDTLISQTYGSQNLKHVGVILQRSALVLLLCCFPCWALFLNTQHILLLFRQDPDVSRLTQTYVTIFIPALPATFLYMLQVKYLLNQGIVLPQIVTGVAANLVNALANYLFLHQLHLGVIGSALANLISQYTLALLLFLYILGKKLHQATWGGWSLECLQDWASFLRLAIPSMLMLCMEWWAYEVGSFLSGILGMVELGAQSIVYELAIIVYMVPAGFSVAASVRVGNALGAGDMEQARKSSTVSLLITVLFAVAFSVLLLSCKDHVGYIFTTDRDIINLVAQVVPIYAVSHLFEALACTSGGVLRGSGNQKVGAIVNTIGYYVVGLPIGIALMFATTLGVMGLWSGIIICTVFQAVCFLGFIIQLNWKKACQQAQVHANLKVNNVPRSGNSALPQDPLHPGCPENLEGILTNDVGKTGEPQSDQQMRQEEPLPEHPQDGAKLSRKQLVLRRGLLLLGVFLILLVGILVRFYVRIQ

mMATE1 = molecular target: T2, mMATE1 (Mus musculus, UniProt Q8K0H1); assay: Inhibition of RI-labeled TEA uptake in HEK293 cells expressing mMATE1; type: cell-based; conditions: for TEA uptake activity percent taking the level with addition of no compound as 100% (% ± S.D.): compound 10 mM;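 as to all read-outs here: transfected HEK293 cells held 5 min at 37 °C before tracer addition, uptake read as radioactivity retained on a 0.45-µm membrane filter, mean ± SD of three to nine experiments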
T2 construct: expressed in transfected cells; host or cells: HEK293
T2 sequence (Q8K0H1 with tags, fused parts or gaps): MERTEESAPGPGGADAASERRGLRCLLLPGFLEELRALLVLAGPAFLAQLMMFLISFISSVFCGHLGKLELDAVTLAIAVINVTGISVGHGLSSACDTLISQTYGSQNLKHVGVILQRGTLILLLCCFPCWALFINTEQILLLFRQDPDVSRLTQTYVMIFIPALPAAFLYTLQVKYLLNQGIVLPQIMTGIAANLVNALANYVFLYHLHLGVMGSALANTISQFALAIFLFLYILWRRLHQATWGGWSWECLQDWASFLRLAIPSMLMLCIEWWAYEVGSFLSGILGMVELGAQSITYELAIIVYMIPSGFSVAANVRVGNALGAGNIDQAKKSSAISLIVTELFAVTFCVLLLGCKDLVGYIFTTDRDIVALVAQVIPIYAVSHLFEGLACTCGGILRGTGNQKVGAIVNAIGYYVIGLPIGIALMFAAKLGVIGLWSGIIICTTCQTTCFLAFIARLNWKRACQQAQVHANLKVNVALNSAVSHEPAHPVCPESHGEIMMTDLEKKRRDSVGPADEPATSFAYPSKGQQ

[1] = compound 0.1 mM, 50 μM RI-labeled TEA, pH 8.0, HEK293 cells expressing hMATE1
[2] = compound 0.001 mM, 50 μM RI-labeled TEA, pH 8.0, HEK293 cells expressing hMATE1
[3] = compound 0.01 mM, 50 μM RI-labeled TEA, pH 8.0, HEK293 cells expressing hMATE1
[4] = 50 μM RI-labeled TEA, pH 8.0, HEK293 cells expressing mMATE1
[5] = compound 1 mM, 50 μM RI-labeled TEA, pH 8.0, HEK293 cells expressing hMATE1

TEA uptake activity percent taking the level with addition of no compound as 100% (% ± S.D.) (hMATE1; [1]): 67.5 ± 8.0%
Compound: NCCc1c[nH]c2ccc(O)cc12 [Serotonin]

TEA uptake activity percent taking the level with addition of no compound as 100% (% ± S.D.) (hMATE1; [2]): 69.2 ± 2.1% | TEA uptake activity percent taking the level with addition of no compound as 100% (% ± S.D.) (hMATE1; [3]): 20.4 ± 2.4% | TEA uptake activity percent taking the level with addition of no compound as 100% (% ± S.D.) (hMATE1; [1]): 4.2 ± 0.9%
Compound: COc1ccc2cc3[n+](cc2c1OC)CCc1cc2c(cc1-3)OCO2 [Berberin]

TEA uptake activity percent taking the level with addition of no compound as 100% (% ± S.D.) (hMATE1; [1]): 12.2 ± 3.6%
Compound: CN(C)CCCN1c2ccccc2Sc2ccc(Cl)cc21 [Chlorpromazine]

TEA uptake activity percent taking the level with addition of no compound as 100% (% ± S.D.) (hMATE1; [1]): 113.0 ± 4.5%
Compound: N[C@@H](Cc1cc(I)c(Oc2cc(I)c(O)c(I)c2)c(I)c1)C(=O)O [Thyroxine]

TEA uptake activity percent taking the level with addition of no compound as 100% (% ± S.D.) (hMATE1; [1]): 94.9 ± 7.8%
Compound: CC/C(=C(/CC)c1ccc(O)cc1)c1ccc(O)cc1 [Diethylstilbestrol]

TEA uptake activity percent taking the level with addition of no compound as 100% (% ± S.D.) (hMATE1; [3]): 41.6 ± 8.2%
Compound: CCN(CC)CCCC(C)Nc1c2ccc(Cl)cc2nc2ccc(OC)cc12 (stereo not drawn) [Quinacrine]

TEA uptake activity percent taking the level with addition of no compound as 100% (% ± S.D.) (hMATE1; [1]): 71.8 ± 3.6%
Compound: C[C@@H]1O[C@@H](OC[C@H]2O[C@@H](Oc3c(-c4ccc(O)c(O)c4)oc4cc(O)cc(O)c4c3=O)[C@H](O)[C@@H](O)[C@@H]2O)[C@H](O)[C@H](O)[C@H]1O [Rutin]

Continued, compound first:

Compound: C[C@]12C[C@H](O)[C@H]3[C@@H](CCC4=CC(=O)CC[C@@]43C)[C@@H]1CC[C@@H]2C(=O)CO [Corticosterone]
Inhibition of TEA uptake activity (in words, summary of Table 1) (hMATE1): inhibited | TEA uptake activity percent taking the level with addition of no compound as 100% (% ± S.D.) (hMATE1; [1]): 10.0 ± 6.7% | remaining activity at 100 µM (mMATE1; compound 0.1 mM, 50 μM RI-labeled TEA, pH 8.0, HEK293 cells expressing mMATE1, read-out: TEA uptake activity percent taking the level with addition of no compound as 100% (% ± S.D.)): 50 ± 2.5%

Compound: COc1ccc2[nH]cc(CCNC(C)=O)c2c1 [Melatonin]
Inhibition of TEA uptake activity (in words, summary of Table 1) (hMATE1): inhibited | TEA uptake activity percent taking the level with addition of no compound as 100% (% ± S.D.) (hMATE1; [1]): 85.0 ± 4.0% | remaining activity at 100 µM (mMATE1; HEK293, pH 8, read-out: TEA uptake activity percent taking the level with addition of no compound as 100% (% ± S.D.)): 51.4 ± 0.8%

Compound: Catechin
TEA uptake activity percent taking the level with addition of no compound as 100% (% ± S.D.) (hMATE1; [1]): 104.0 ± 4.4%

Compound: CC[C@@H]1C(=O)OC[C@@H]1Cc1cncn1C [Pilocarpine]
TEA uptake activity percent taking the level with addition of no compound as 100% (% ± S.D.) (hMATE1; [1]): 96.1 ± 0.4%

Compound: O=C(O)CCC(=O)O [Succinate]
TEA uptake activity percent taking the level with addition of no compound as 100% (% ± S.D.) (hMATE1; compound 10 mM, 50 μM RI-labeled TEA, pH 8.0, HEK293 cells expressing hMATE1): 108.1 ± 4.2% | TEA uptake activity percent taking the level with addition of no compound as 100% (% ± S.D.) (mMATE1; [4]): 95.1 ± 6.3%

Compound: COC(=O)[C@H]1[C@H]2C[C@@H]3c4[nH]c5cc(OC)ccc5c4CCN3C[C@H]2C[C@@H](OC(=O)c2cc(OC)c(OC)c(OC)c2)[C@@H]1OC [Reserpine]
TEA uptake activity percent taking the level with addition of no compound as 100% (% ± S.D.) (hMATE1; [2]): 86.3 ± 3.5% | TEA uptake activity percent taking the level with addition of no compound as 100% (% ± S.D.) (hMATE1; [3]): 22.8 ± 0.9%

Compound: C[N+](C)(C)CC(O)CC(=O)[O-] (stereo not drawn) [Carnitine]
TEA uptake activity percent taking the level with addition of no compound as 100% (% ± S.D.) (hMATE1; compound 5 mM, 50 μM RI-labeled TEA, pH 8.0, HEK293 cells expressing hMATE1): 104.2 ± 6.4% | remaining activity at 5000 µM (mMATE1; compound 5 mM, 50 μM RI-labeled TEA, pH 8.0, HEK293 cells expressing mMATE1, read-out: TEA uptake activity percent taking the level with addition of no compound as 100% (% ± S.D.)): 71.2 ± 6.1%

Compound: CO[C@@H]1C[C@@H](C[C@H]2CC[C@H](C)[C@H]([C@@H](C)C(=O)O)O2)O[C@]2(O[C@](C)([C@H]3CC[C@@](C)([C@@H]4O[C@@H]([C@H]5O[C@@](O)(CO)[C@H](C)C[C@@H]5C)C[C@@H]4C)O3)C[C@H]2C)[C@@H]1C [nigericin]
Effect on TEA uptake activity (in words) (hMATE1; HEK293 cells expressing human MATE1, FIG. 9(e), valinomycin 5 μM with 65 mM potassium chloride, nigericin 5 μM with potassium chloride, SF6847 10 μM): greatly decreased

Compound: Cc1ncc(C[n+]2csc(CCO)c2C)c(N)n1 [Thiamine]
TEA uptake activity percent taking the level with addition of no compound as 100% (% ± S.D.) (hMATE1; [1]): 55.7 ± 7.0% | TEA uptake activity percent taking the level with addition of no compound as 100% (% ± S.D.) (hMATE1; [5]): 31.1 ± 3.9%

Compound: C[C@H]1O[C@@H](O[C@H]2[C@@H](O)C[C@H](O[C@H]3[C@@H](O)C[C@H](O[C@H]4CC[C@@]5(C)[C@H](CC[C@@H]6[C@@H]5C[C@@H](O)[C@]5(C)[C@@H](C7=CC(=O)OC7)CC[C@]65O)C4)O[C@@H]3C)O[C@@H]2C)C[C@H](O)[C@@H]1O [Digoxin]
TEA uptake activity percent taking the level with addition of no compound as 100% (% ± S.D.) (hMATE1; [2]): 102.5 ± 7.3%

Compound: O=C(O)c1ccccc1O [Salicylate]
TEA uptake activity percent taking the level with addition of no compound as 100% (% ± S.D.) (hMATE1; pH 8): 97.8 ± 4.8% | TEA uptake activity percent taking the level with addition of no compound as 100% (% ± S.D.) (mMATE1; [4]): 92.4 ± 4.3%

Compound: C[n+]1ccc(-c2cc[n+](C)cc2)cc1 [Paraquat]
TEA uptake activity percent taking the level with addition of no compound as 100% (% ± S.D.) (hMATE1; [5]): 57.2 ± 6.8%
